Counter-ions that a name gives are not always drawn.
Target: human cloned 5-HT6 receptors (Homo sapiens, UniProt P50406)
Assay: Evaluation of 5-HT6 binding affinity ([3H]-LSD radioligand binding)

Chain of human cloned 5-HT6 receptors (P50406 whole entry): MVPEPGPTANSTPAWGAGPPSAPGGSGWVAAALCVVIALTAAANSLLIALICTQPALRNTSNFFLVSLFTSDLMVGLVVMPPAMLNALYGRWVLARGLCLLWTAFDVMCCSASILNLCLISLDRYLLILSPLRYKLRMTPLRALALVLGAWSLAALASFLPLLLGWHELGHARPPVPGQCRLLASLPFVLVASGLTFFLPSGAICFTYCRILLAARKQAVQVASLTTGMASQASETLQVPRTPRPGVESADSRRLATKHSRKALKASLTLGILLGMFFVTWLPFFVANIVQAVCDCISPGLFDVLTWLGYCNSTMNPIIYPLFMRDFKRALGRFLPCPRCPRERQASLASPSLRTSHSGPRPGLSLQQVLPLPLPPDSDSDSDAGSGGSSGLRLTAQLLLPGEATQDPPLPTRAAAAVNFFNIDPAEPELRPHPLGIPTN

In order of falling Ki:
1. O=S(=O)(c1ccc2nc(N3CCNCC3)sc2c1)c1cccc2ccccc12 [Example 41, 6-(1-Naphthylsulfonyl)-2-piperazin-1-ylbenzothiazole Dihydrochloride]  500 nM
2. O=S(=O)(c1cccc2ccccc12)c1cccc2oc(N3CCN(C4CCCCC4)CC3)nc12 [Example 31]  91 nM
3. O=S(=O)(c1cccc2ccccc12)c1cccc2oc(N3CCN(C4CCCC4)CC3)nc12 [Example 30]  78 nM
4. O=S(=O)(c1ccccc1)c1cccc2oc(N3CCNCC3)nc12 [Example 13]  67 nM
5. CN1CCN(c2nc3c(S(=O)(=O)c4cccc5ccccc45)cccc3o2)CC1 [Example 22, 2-(4-Methylpiperazin-1-yl)-4-(1-naphthylsulfonyl)benzoxazole Dihydrochloride]  10 nM
6. O=S(=O)(c1cccc2ccccc12)c1cccc2nc(N3CCNCC3)oc12 [Example 34, 7-(1-naphthylsulfonyl)-2-piperazin-1-ylbenzoxazole Dihydrochloride]  7 nM

— US7501421B2, “Benzoxazole and benzothiazole derivatives as 5-hydroxytryptamine-6 ligands” (Wyeth, priority 2006, dated 2009)
